{
  "source": "paper PMC6332076",
  "about": "“Plasma Pharmacokinetics of Polyphenols in a Traditional Japanese Medicine, Jumihaidokuto, Which Suppresses Propionibacterium acnes-Induced Dermatitis in Rats” (Molecules, 2015)",
  "test_system": "Propionibacterium acnes (P. acnes)-induced dermatitis",
  "assay": "P. acnes-induced acute dermatitis, ear thickness",
  "format": "in vivo, rat",
  "conditions": "rats, intradermal P. acnes 0.14 mg/ear; JHT 0.5 g/kg p.o. 1 h before and 6 h after injection; PDN 10 mg/kg p.o.; P. acnes + DW group 181%; N = 5",
  "description": "Figure 1 Suppression of Propionibacterium acnes (P. acnes)-induced dermatitis in rats by jumihaidokuto (JHT) administration. Dermatitis was induced in rats by injection of P. acnes (0.14 mg/50 μL/ear) into the pinna. The ear thickness was measured at 0 and 24 h after the injection. JHT suspended in distilled water (DW) was administered orally at a dose of 0.5 g/10 mL/kg at 1 h before and 6 h after the injection. Prednisolone (PDN, 10 mg/10 mL/kg) was used as a reference drug. Data represent the relative ear thickness, which was standardized against the previous values before the injection. N = 5. ^## p < 0.01 vs. saline + DW group (Student’s t-test), ** p < 0.01 significant vs. P. acnes + DW group (Dunnett’s test). […]\nP. acnes-induced dermatitis was induced using the procedure described previously with a minor modification. […] The ear thickness was measured using a dial thickness gauge micrometer (Ozaki MFG Co., Tokyo, Japan) at 0 and 24 h after the injection. All data on the increase in ear thickness were expressed as a percentage of the previous value in each individual rat, and as the mean ± S.E. Statistical significance was evaluated by one-way analysis of variance, followed by the Dunnett’s multiple comparisons or unpaired Student’s t-test. […]",
  "data": [
    {"smiles": "C[C@]12C=CC(=O)C=C1CC[C@@H]1[C@@H]2[C@@H](O)C[C@@]2(C)[C@H]1CC[C@]2(O)C(=O)CO", "note": "[PDN, Prednisolone]", "values": [
      {"measurement": "increase in ear thickness in a 24 h period compared with that prior to injection", "value": 123, "unit": "%"}
    ]}
  ]
}
